# Assay results taken from US7148204B2, “Antisense modulation of bcl-x expression” (Isis Pharmaceuticala, Inc., priority 1998, dated 2006).
# In the oligonucleotide strings, read from the 5' end, every base follows the letter of its sugar. An asterisk marks phosphorothioate; unmarked linkages are phosphodiester. Other units and linkages are bracketed, terminal groups are in braces. A string of capitals states the bases alone. e = 2'-O-(2-methoxyethyl) (MOE); [5mC] = 5-methylcytosine; d = 2'-deoxy (DNA)
# Tested on: human bcl-x mRNA
# Experiment: Northern blot analysis of bcl-x mRNA levels in A549 cells
# Format: cell-based
# Conditions: 200 nM chimeric oligonucleotide
# Method: Eighteen hours after antisense treatment, cell monolayers were washed twice with cold PBS and lysed in 1 mL RNAZOL™ (TEL-TEST “B” Inc., Friendswood, Tex.). Total RNA was prepared following manufacturer's recommended protocols. Twenty micrograms of total RNA was fractionated by electrophoresis through 1.2% agarose gels containing 1.1% formaldehyde using a MOPS buffer system (AMRESCO, Inc. Solon, Ohio). RNA was transferred from the gel to HYBOND™-N+ nylon membranes (Amersham Pharmacia Biotech, Piscataway, N.J.) by overnight capillary transfer using a Northern/Southern Transfer buffer system (TEL-TEST “B” Inc., Friendswood, Tex.). RNA transfer was confirmed by UV visualization. Membranes were fixed by UV cross-linking using a STRATALINKER™ UV Crosslinker 2400 (Stratagene, Inc, La Jolla, Calif.).
# Membranes were probed using QUICKHYB™ hybridization solution (Stratagene, La Jolla, Calif.) using manufacturer's recommendations for stringent conditions with an 822-base pair bcl-x specific probe prepared by PCR from bases 33–855 of human bcl-xl sequence (Boise et al., 1993, Cell 74:597–608; GenBank accession no. L20121). To normalize for variations in loading and transfer efficiency membranes were stripped and probed for glyceraldehyde-3-phosphate dehydrogenase (GAPDH) RNA (Clontech, Palo Alto, Calif.). Hybridized membranes were visualized and quantitated using a PHOSPHORIMAGER™ and IMAGEQUANT™ Software V3.3 (Molecular Dynamics, Sunnyvale, Calif.). Data was normalized to GAPDH levels in untreated controls.
# Oligonucleotides were tested by Northern blot analysis as described in Example 14. Oligonucleotides were tested in A549 cells at a concentration of 400 nM. The results are Table 2:
# Oligonucleotides were tested by Northern blot analysis as described in Example 14. Chimeric oligonucleotides were in A549 cells at a concentration of 200 nM. Where present, “N.D.” indicates “not determined”.
Substance,% CONTROL (bcl-x mRNA levels),% INHIB (bcl-x mRNA levels)
15998 (antisense eT*eA*eA*eT*eA*dG*dG*dG*dA*dT*dG*dG*dG*dC*dT*e[5mC]*eA*eA*e[5mC]*e[5mC]) [compound 15998],13%,87%
15999 (antisense eT*e[5mC]*e[5mC]*e[5mC]*eG*dG*dT*dT*dG*dC*dT*dC*dT*dG*dA*eG*eA*e[5mC]*eA*eT) [compound 15999],4%,96%
16000 (antisense eG*eG*eG*e[5mC]*e[5mC]*dT*dC*dA*dG*dT*dC*dC*dT*dG*dT*eT*e[5mC]*eT*e[5mC]*eT) [compound 16000],4%,96%
16001 (antisense eT*e[5mC]*e[5mC]*eA*eT*dC*dT*dC*dC*dG*dA*dT*dT*dC*dA*eG*eT*e[5mC]*e[5mC]*e[5mC]) [compound 16001],17%,83%
16002 (antisense eA*eG*eG*eT*eG*dC*dC*dA*dG*dG*dA*dT*dG*dG*dG*eT*eT*eG*e[5mC]*e[5mC]) [compound 16002],8%,92%
16003 (antisense eA*eG*eT*eG*eG*dC*dT*dC*dC*dA*dT*dT*dC*dA*dC*e[5mC]*eG*e[5mC]*eG*eG) [compound 16003],12%,88%
16004 (antisense e[5mC]*eT*eT*eG*e[5mC]*dT*dT*dT*dA*dC*dT*dG*dC*dT*dG*e[5mC]*e[5mC]*eA*eT*eG) [compound 16004],5%,95%
16005 (antisense eG*e[5mC]*e[5mC]*eG*eG*dT*dA*dC*dC*dG*dC*dA*dG*dT*dT*e[5mC]*eA*eA*eA*e[5mC]) [compound 16005],17%,83%
16006 (antisense e[5mC]*eT*eG*eT*eT*dC*dA*dA*dA*dG*dC*dT*dC*dT*dG*eA*eT*eA*eT*eG) [compound 16006],28%,72%
16007 (antisense eT*eA*e[5mC]*e[5mC]*e[5mC]*dC*dA*dT*dC*dC*dC*dG*dG*dA*dA*eG*eA*eG*eT*eT) [compound 16007],31%,69%
16010 (antisense eT*e[5mC]*e[5mC]*eA*eA*dG*dC*dT*dG*dC*dG*dA*dT*dC*dC*eG*eA*e[5mC]*eT*e[5mC]) [compound 16010],13%,87%
16011 (antisense e[5mC]*eT*eG*eG*eA*dT*dC*dC*dA*dA*dG*dG*dC*dT*dC*eT*eA*eG*eG*eT) [compound 16011],31%,69%
16014 (antisense eA*eG*e[5mC]*eG*eT*dT*dC*dC*dT*dG*dG*dC*dC*dC*dT*eT*eT*e[5mC]*eG*eG) [compound 16014],22%,78%
16015 (antisense eG*eT*e[5mC]*eA*eT*dG*dC*dC*dC*dG*dT*dC*dA*dG*dG*eA*eA*e[5mC]*e[5mC]*eA) [compound 16015],12%,88%
16018 (antisense eG*eA*eG*eG*eG*dT*dA*dG*dA*dG*dT*dG*dG*dA*dT*eG*eG*eT*e[5mC]*eA) [compound 16018],40%,60%
16019 (antisense eG*eG*eA*eG*eG*dA*dT*dG*dT*dG*dG*dT*dG*dG*dA*eG*e[5mC]*eA*eG*eA) [compound 16019],40%,60%

# Same assay, conditions: 400 nM oligonucleotide
Substance,% CONTROL (bcl-x mRNA levels),% INHIB (bcl-x mRNA levels)
11219 (antisense dC*dG*dG*dG*dT*dT*dC*dT*dC*dC*dT*dG*dG*dT*dG*dG*dC*dA*dA*dT) [compound 11219],6%,94%
11220 (antisense dC*dA*dG*dT*dG*dT*dC*dT*dG*dG*dT*dC*dA*dT*dT*dT*dC*dC*dG*dA) [compound 11220],12%,88%
11221 (antisense dA*dG*dC*dC*dC*dA*dG*dC*dA*dG*dA*dA*dC*dC*dA*dC*dG*dC*dC*dG) [compound 11221],11%,89%
11222 (antisense dG*dT*dT*dG*dA*dA*dG*dC*dG*dT*dT*dC*dC*dT*dG*dG*dC*dC*dC*dT) [compound 11222],35%,65%
11223 (antisense dC*dA*dG*dT*dG*dC*dC*dC*dC*dG*dC*dC*dG*dA*dA*dG*dG*dA*dG*dA) [compound 11223],9%,91%
11224 (antisense dT*dC*dG*dC*dC*dT*dG*dC*dC*dT*dC*dC*dC*dT*dC*dA*dG*dC*dG*dC) [compound 11224],6%,94%
11225 (antisense dC*dA*dG*dT*dG*dG*dC*dT*dC*dC*dA*dT*dT*dC*dA*dC*dC*dG*dC*dG) [compound 11225],25%,75%
11226 (antisense dA*dT*dT*dC*dA*dG*dT*dC*dC*dC*dT*dT*dC*dT*dG*dG*dG*dG*dC*dC) [compound 11226],34%,66%
11227 (antisense dA*dA*dA*dG*dT*dC*dA*dA*dC*dC*dA*dC*dC*dA*dG*dC*dT*dC*dC*dC) [compound 11227],10%,90%
11228 (antisense dC*dC*dG*dG*dT*dT*dG*dC*dT*dC*dT*dG*dA*dG*dA*dC*dA*dT*dT*dT) [compound 11228],31%,69%
11229 (antisense dA*dC*dC*dA*dG*dT*dC*dC*dA*dT*dT*dG*dT*dC*dC*dA*dA*dA*dA*dC) [compound 11229],60%,40%
11230 (antisense dG*dA*dA*dG*dG*dG*dA*dG*dA*dG*dA*dA*dA*dG*dA*dG*dA*dT*dT*dC) [compound 11230],135%,–
11993 (antisense dT*dC*dA*dT*dT*dC*dA*dC*dT*dA*dC*dC*dT*dG*dT*dT*dC*dA*dA*dA) [compound 11993],142%,–

# Same assay, conditions: dose-response, Northern blot
row,Substance,IC50
1,11224 (antisense dT*dC*dG*dC*dC*dT*dG*dC*dC*dT*dC*dC*dC*dT*dC*dA*dG*dC*dG*dC) [compound 11224],~175 nM
2,"CGGGTTCTCCTGGTGGCAAT (all phosphorothioate, sugars by position and methylation of C not given here; further chemistry not fully specified) [ISIS 11219]",~250 nM

# Tested on: bcl-xs/bcl-xl mRNA ratio
# Experiment: RNase protection assay, bcl-xs/bcl-xl mRNA ratio in A549 cells
# Format: cell-based, human
# Conditions: A549 cells, RPA, 200 nM; no oligo = 1
# Text: The ribonuclease (RNase) protection assay is a sensitive and specific method for quantitating expression levels (Zinn, et al., Cell, 1983, 34:865–79). The method is based on the hybridization of a target RNA to an in vitro transcribed ^32P-labeled anti-sense RNA probe from a DNA template. RNase treatment follows, resulting in degradation of single-stranded RNA and excess probe. The probe and target RNA are resolved by denaturing polyacrylamide gel electrophoresis with the “protected” probe visualized using autoradiography or beta imaging equipment. Template sets can be purchased (PharMingen Inc., San Diego Calif.) which contain a series of biologically relevant templates, each of distinct length and each representing a sequence in a distinct mRNA species. Each template set is capable of detecting up to 11 unique gene messages in a single reaction mix in addition to one or more housekeeping genes, L32 and GAPDH, which serve as internal controls. These template sets allow for multiple determinations to be made from a single sample. Multi-probe RPA can be performed on total RNA preparations derived by standard methods, without further purification of poly-A+ RNA.
# Oligonucleotides were evaluated for their respective effects on bcl-xs and bcl-xl mRNA levels along with total bcl-x mRNA levels, using the RIBOQUANT™ RNase protection kit (Pharmingen, San Diego Calif.). All assays were performed according to manufacturer's protocols. Briefly, multi-probe DNA template sets were used to generate antisense RNA transcripts radiolabeled with […]. The template set used for apoptosis genes was the human hAPO-2 set. These radiolabeled probes were hybridized overnight with typically 10 μg of total cellular RNA. The reaction mixture was then digested with single-strand RNases to generate the protected fragments which were electrophoresed through a 5% acrylamide/urea gel. Protected bands were visualized and quantitated using a PhosphorImager (Molecular Dynamics, Sunnyvale Calif.).
# Human bcl-x has two forms, a long form known as bcl-xl and a short form known as bcl-xs. […] The protein of bcl-xl is similar in size and structure to bcl-2, and could inhibit cell death upon growth factor withdrawal. The protein of bcl-xs is 63 amino acids shorter than bcl-xl. It could inhibit the bcl-2 function, thus promoting programmed cell death (apoptosis). Oligonucleotides were evaluated for their respective effects on bcl-xs and bcl-xl mRNA levels along with total bcl-x mRNA levels, using the RIBOQUANT™ RNase protection kit (Pharmingen, San Diego Calif.). All assays were performed according to manufacturer's protocols.
# These oligonucleotides were tested for their inhibitory effects on bcl-xl and bcl-xs mRNA levels in A549 cells, as detected by RPA analysis. Oligonucleotide concentration was 200 nM.
row,Substance,bcl-xs/bcl-xl Fold difference
1,"TGGTTCTTACCCAGCCGCCG (all 2'-MOE, all phosphorothioate, methylation of C not given here) [ISIS 105751]",45 fold
